Calls of active or inactive are those of the source. No cut-off for these calls is given here.
Tests used:
[1] = Cytotoxicity against human MRC5 SV2 cells assessed as reduction in cell viability after 3 days resazurin-based fluorimetric assay; settings: MRC-5 SV2, 72 h
Trypanosoma cruzi [2] = assay: Antiparasitic activity against Trypanosoma cruzi Tulahuen CL2 intracellular amastigotes expressing beta-galactosidase infected in human MRC5 SV2 cells after 7 days by chlorophenol red beta-D-galactopyranoside-based spectrophotometric analysis; format: functional, organism-based; settings: Tulahuen CL2, MRC-5 SV2, 168 h
[3] = Therapeutic index, ratio EC50 for human MRC5 SV2 cells to EC50 for Trypanosoma cruzi Tulahuen CL2 intracellular amastigotes; format: toxicity, cell-based; settings: read-out: Ratio EC50
[4] = Drug metabolism in rat liver microsome S9 fraction assessed as CYP450-mediated metabolism by measuring compound remaining at 5 uM pretreated with NADPH and measured after 30 mins by UPLC-MS/MS analysis; format: ADME, microsomes; settings: microsomes, 0.5 h, 5 µM
[5] = Drug metabolism in mouse liver microsome S9 fraction assessed as CYP450-mediated metabolism by measuring compound remaining at 5 uM pretreated with NADPH and measured after 60 mins by UPLC-MS/MS analysis; format: ADME, microsomes; settings: microsomes, 1 h, 5 µM
Cytochrome P450 [6] = assay: Drug metabolism in human liver microsome S9 fraction assessed as CYP450-mediated metabolism by measuring compound remaining at 5 uM pretreated with NADPH and measured after 30 mins by UPLC-MS/MS analysis; format: ADME, microsomes; settings: microsomes, 0.5 h, 5 µM
[7] = Drug metabolism in dog liver microsome S9 fraction assessed as CYP450-mediated metabolism by measuring compound remaining at 5 uM pretreated with NADPH and measured after 15 mins by UPLC-MS/MS analysis; format: ADME, microsomes, Canis lupus familiaris; settings: microsomes, 0.25 h, 5 µM
[8] = Drug metabolism in rat liver microsome S9 fraction assessed as CYP450-mediated metabolism by measuring compound remaining at 5 uM pretreated with NADPH and measured after 15 mins by UPLC-MS/MS analysis; format: ADME, microsomes; settings: microsomes, 0.25 h, 5 µM
[9] = Drug metabolism in dog liver microsome S9 fraction assessed as CYP450-mediated metabolism by measuring compound remaining at 5 uM pretreated with NADPH and measured after 60 mins by UPLC-MS/MS analysis; format: ADME, microsomes, Canis lupus familiaris; settings: microsomes, 1 h, 5 µM
Cytochrome P450 [10] = assay: Drug metabolism in human liver microsome S9 fraction assessed as CYP450-mediated metabolism by measuring compound remaining at 5 uM pretreated with NADPH and measured after 60 mins by UPLC-MS/MS analysis; format: ADME, microsomes; settings: microsomes, 1 h, 5 µM
Cytochrome P450 [11] = assay: Drug metabolism in human liver microsome S9 fraction assessed as CYP450-mediated metabolism by measuring compound remaining at 5 uM pretreated with NADPH and measured after 15 mins by UPLC-MS/MS analysis; format: ADME, microsomes; settings: microsomes, 0.25 h, 5 µM
[12] = Drug metabolism in mouse liver microsome S9 fraction assessed as CYP450-mediated metabolism by measuring compound remaining at 5 uM pretreated with NADPH and measured after 30 mins by UPLC-MS/MS analysis; format: ADME, microsomes; settings: microsomes, 0.5 h, 5 µM
[13] = Drug metabolism in rat liver microsome S9 fraction assessed as CYP450-mediated metabolism by measuring compound remaining at 5 uM pretreated with NADPH and measured after 60 mins by UPLC-MS/MS analysis; format: ADME, microsomes; settings: microsomes, 1 h, 5 µM
[14] = Drug metabolism in mouse liver microsome S9 fraction assessed as CYP450-mediated metabolism by measuring compound remaining at 5 uM pretreated with NADPH and measured after 15 mins by UPLC-MS/MS analysis; format: ADME, microsomes; settings: microsomes, 0.25 h, 5 µM
[15] = Drug metabolism in dog liver microsome S9 fraction assessed as CYP450-mediated metabolism by measuring compound remaining at 5 uM pretreated with NADPH and measured after 30 mins by UPLC-MS/MS analysis; format: ADME, microsomes, Canis lupus familiaris; settings: microsomes, 0.5 h, 5 µM
[16] = tested on: UDP-glucuronosyltransferases (UGTs); assay: Drug metabolism in human liver microsome S9 fraction assessed as UGT-mediated metabolism by measuring compound remaining at 5 uM pretreated with UDPGA and measured after 60 mins by UPLC-MS/MS analysis; format: ADME, microsomes; settings: microsomes, 1 h, 5 µM
[17] = Drug metabolism in rat liver microsome S9 fraction assessed as UGT-mediated metabolism by measuring compound remaining at 5 uM pretreated with UDPGA and measured after 30 mins by UPLC-MS/MS analysis; format: ADME, microsomes; settings: microsomes, 0.5 h, 5 µM
[18] = Drug metabolism in rat liver microsome S9 fraction assessed as UGT-mediated metabolism by measuring compound remaining at 5 uM pretreated with UDPGA and measured after 15 mins by UPLC-MS/MS analysis; format: ADME, microsomes; settings: microsomes, 0.25 h, 5 µM
[19] = Drug metabolism in mouse liver microsome S9 fraction assessed as UGT-mediated metabolism by measuring compound remaining at 5 uM pretreated with UDPGA and measured after 60 mins by UPLC-MS/MS analysis; format: ADME, microsomes; settings: microsomes, 1 h, 5 µM
[20] = Drug metabolism in mouse liver microsome S9 fraction assessed as UGT-mediated metabolism by measuring compound remaining at 5 uM pretreated with UDPGA and measured after 15 mins by UPLC-MS/MS analysis; format: ADME, microsomes; settings: microsomes, 0.25 h, 5 µM
[21] = Drug metabolism in dog liver microsome S9 fraction assessed as UGT-mediated metabolism by measuring compound remaining at 5 uM pretreated with UDPGA and measured after 15 mins by UPLC-MS/MS analysis; format: ADME, microsomes, Canis lupus familiaris; settings: microsomes, 0.25 h, 5 µM
[22] = tested on: UDP-glucuronosyltransferases (UGTs); assay: Drug metabolism in human liver microsome S9 fraction assessed as UGT-mediated metabolism by measuring compound remaining at 5 uM pretreated with UDPGA and measured after 30 mins by UPLC-MS/MS analysis; format: ADME, microsomes; settings: microsomes, 0.5 h, 5 µM
[23] = tested on: UDP-glucuronosyltransferases (UGTs); assay: Drug metabolism in human liver microsome S9 fraction assessed as UGT-mediated metabolism by measuring compound remaining at 5 uM pretreated with UDPGA and measured after 15 mins by UPLC-MS/MS analysis; format: ADME, microsomes; settings: microsomes, 0.25 h, 5 µM
[24] = Drug metabolism in dog liver microsome S9 fraction assessed as UGT-mediated metabolism by measuring compound remaining at 5 uM pretreated with UDPGA and measured after 30 mins by UPLC-MS/MS analysis; format: ADME, microsomes, Canis lupus familiaris; settings: microsomes, 0.5 h, 5 µM
[25] = Drug metabolism in rat liver microsome S9 fraction assessed as UGT-mediated metabolism by measuring compound remaining at 5 uM pretreated with UDPGA and measured after 60 mins by UPLC-MS/MS analysis; format: ADME, microsomes; settings: microsomes, 1 h, 5 µM
[26] = Drug metabolism in mouse liver microsome S9 fraction assessed as UGT-mediated metabolism by measuring compound remaining at 5 uM pretreated with UDPGA and measured after 30 mins by UPLC-MS/MS analysis; format: ADME, microsomes; settings: microsomes, 0.5 h, 5 µM
[27] = Drug metabolism in dog liver microsome S9 fraction assessed as UGT-mediated metabolism by measuring compound remaining at 5 uM pretreated with UDPGA and measured after 60 mins by UPLC-MS/MS analysis; format: ADME, microsomes, Canis lupus familiaris; settings: microsomes, 1 h, 5 µM
Trypanosoma cruzi [28] = assay: (§1) Antiparasitic activity against Trypanosoma cruzi Y strain bloodstream trypomastigotes infected in Swiss Webster mouse assessed as protection against parasite-induced mortality at 100 mg/kg, po sid via gavage administered for 5 consecutive days starting from day 5 post infection measured at day 15 post infection; format: functional, organism-based
Trypanosoma cruzi [29] = assay: Trypanocidal activity against Trypanosoma cruzi Y strain intracellular amastigotes infected in mouse cardiac cells assessed as parasite death after 168 hrs by Giemsa-staining based assay; format: functional, organism-based
Trypanosoma cruzi [30] = assay: Antiparasitic activity against Trypanosoma cruzi Y strain bloodstream trypomastigotes infected in Swiss Webster mouse assessed as decrease in parasitemia at 100 mg/kg, po sid via gavage administered for 5 consecutive days measured at day 8 post infection by direct microscopic counting; format: functional, organism-based
[31] = Cytotoxicity against Swiss mouse embryonic cardiomyocytes assessed as reduction in cell viability after 24 hrs by prestoblue-staining based colorimetry; settings: Cardiac muscle cell
Trypanosoma cruzi [32] = assay: Trypanocidal activity against Trypanosoma cruzi Y strain bloodstream trypomastigotes isolated from infected Swiss mouse […] assessed as parasite death after 24 hrs by neubauer chamber based light microscopy; format: functional, organism-based
Trypanosoma cruzi [33] = assay: Antiparasitic activity against Trypanosoma cruzi Y strain bloodstream trypomastigotes infected in Swiss Webster mouse at 100 mg/kg, po sid via gavage administered for 5 consecutive days starting from day 5 post infection followed by cyclophosphamide-induced immunosuppression on day 40 post infection for 4 consecutive days; format: functional, organism-based
Trypanosoma cruzi [34] = assay: as §1, with “25” for “100”, “bid” for “sid”; format: functional, organism-based

Nc1ncnc2c1c(C1CCCCC1)cn2[C@@H]1O[C@H](CO)C[C@H]1O
EC50 [1]: > 64 µM | EC50 (Trypanosoma cruzi [2]; read-out: EC50): 20.9 µM | selectivity ratio [3]: > 3

Nc1ncnc2c1c(-c1ccc(C(F)(F)F)cc1)cn2[C@@H]1O[C@H](CO)C[C@H]1O
EC50 [1]: 40 µM | EC50 (Trypanosoma cruzi [2]; read-out: EC50): 0.53 µM | selectivity ratio [3]: 76

Nc1ncnc2c1c(-c1ccc3ccccc3c1)cn2[C@@H]1O[C@H](CO)C[C@H]1O
EC50 [1]: 5 µM | EC50 (Trypanosoma cruzi [2]; read-out: EC50): 0.72 µM | selectivity ratio [3]: 7

Nc1ncnc2c1c(-c1ccc([N+](=O)[O-])cc1)cn2[C@@H]1O[C@H](CO)C[C@H]1O
EC50 [1]: > 64 µM | EC50 (Trypanosoma cruzi [2]; read-out: EC50): 1.21 µM | selectivity ratio [3]: > 53

Nc1ncnc2c1c(-c1ccc(F)c(Cl)c1)cn2[C@@H]1O[C@H](CO)C[C@H]1O
EC50 [1]: 45.5 µM | EC50 (Trypanosoma cruzi [2]; read-out: EC50): 0.3 µM | selectivity ratio [3]: 150

OC(Cn1cncn1)(Cn1cncn1)c1ccc(F)cc1F [FLUCONAZOLE]
Stability [4]: Stable | Stability [5]: Stable | Stability (Cytochrome P450 [6]): Stable | Stability [7]: Stable | Stability [8]: Stable | Stability [9]: Stable | Stability (Cytochrome P450 [10]): Stable | Stability (Cytochrome P450 [11]): Stable | Stability [12]: Stable | Stability [13]: Stable | Stability [14]: Stable | Stability [15]: Stable

Nc1ncnc2c1ncn2[C@@H]1O[C@H](CO)C[C@H]1O [CORDYCEPIN]
EC50 [1]: > 64 µM | EC50 (Trypanosoma cruzi [2]; read-out: EC50): 2.51 µM | selectivity ratio [3]: > 25

Nc1ncnc2c1c(-c1ccc(Cl)c(F)c1)cn2[C@@H]1O[C@H](CO)C[C@H]1O
EC50 [1]: 18.6 µM | EC50 (Trypanosoma cruzi [2]; read-out: EC50): 0.071 µM | selectivity ratio [3]: 260

O=C(O)Cc1ccccc1Nc1c(Cl)cccc1Cl [DICLOFENAC]
Stability [4]: Unstable | Stability [16]: Unstable | Stability [5]: Unstable | Stability [17]: Unstable | Stability (Cytochrome P450 [6]): Unstable | Stability [18]: Unstable | Stability [7]: Unstable | Stability [8]: Unstable | Stability [19]: Unstable | Stability [20]: Unstable | Stability [9]: Unstable | Stability (Cytochrome P450 [10]): Unstable | Stability [21]: Unstable | Stability [22]: Unstable | Stability [23]: Unstable | Stability (Cytochrome P450 [11]): Unstable | Stability [24]: Unstable | Stability [12]: Unstable | Stability [25]: Unstable | Stability [26]: Unstable | Stability [13]: Unstable | Stability [14]: Unstable | Stability [15]: Unstable | Stability [27]: Unstable

COc1ccc(-c2cn([C@@H]3O[C@H](CO)C[C@H]3O)c3ncnc(N)c23)cc1Cl
EC50 [1]: > 64 µM | EC50 (Trypanosoma cruzi [2]; read-out: EC50): 3.3 µM | selectivity ratio [3]: > 19

O=C(Cn1ccnc1[N+](=O)[O-])NCc1ccccc1 [BENZNIDAZOLE]
Activity (Trypanosoma cruzi [28]): Active | EC50 (Trypanosoma cruzi [29]): 0.354 µM | EC50 (Trypanosoma cruzi [2]): 2.28 µM | Activity (Trypanosoma cruzi [30]): Active | EC50 [31]: > 400 µM | EC50 (Trypanosoma cruzi [32]): 11.5 µM | Activity (Trypanosoma cruzi [33]): inactive | Activity (Trypanosoma cruzi [34]): Active

Nc1ncnc2c1c(-c1ccc(F)c(F)c1)cn2[C@@H]1O[C@H](CO)C[C@H]1O
EC50 [1]: > 64 µM | EC50 (Trypanosoma cruzi [2]; read-out: EC50): 0.33 µM | selectivity ratio [3]: > 190

Cc1cccc(-c2cn([C@@H]3O[C@H](CO)C[C@H]3O)c3ncnc(N)c23)c1
EC50 [1]: > 64 µM | EC50 (Trypanosoma cruzi [2]; read-out: EC50): 5.15 µM | selectivity ratio [3]: > 12

CC(C)c1ccc(-c2cn([C@@H]3O[C@H](CO)C[C@H]3O)c3ncnc(N)c23)cc1
EC50 [1]: 24.9 µM | EC50 (Trypanosoma cruzi [2]; read-out: EC50): 8.48 µM | selectivity ratio [3]: 2.9

Nc1ncnc2c1c(-c1ccc(OC(F)(F)F)cc1)cn2[C@@H]1O[C@H](CO)C[C@H]1O
EC50 [1]: 40.4 µM | EC50 (Trypanosoma cruzi [2]; read-out: EC50): 1.39 µM | selectivity ratio [3]: 29
